In patent publication US11957687B2 (REGENERON PHARMACEUTICALS, INC., priority 2019, dated 2024):

These compounds were tested against HSD17B13 (Homo sapiens (Human), UniProt Q7Z5P4) (assay: HSD17B13 enzymatic inhibition assay (150 nM or 50 nM HSD17B13)). Details: 50 nM HSD17B13; read-out: Inhibition of 50 nM of HSD17B13 IC50.
Format: biochemical

HSD17B13, sequence (Q7Z5P4 other isoform, or with tags, fused parts or gaps): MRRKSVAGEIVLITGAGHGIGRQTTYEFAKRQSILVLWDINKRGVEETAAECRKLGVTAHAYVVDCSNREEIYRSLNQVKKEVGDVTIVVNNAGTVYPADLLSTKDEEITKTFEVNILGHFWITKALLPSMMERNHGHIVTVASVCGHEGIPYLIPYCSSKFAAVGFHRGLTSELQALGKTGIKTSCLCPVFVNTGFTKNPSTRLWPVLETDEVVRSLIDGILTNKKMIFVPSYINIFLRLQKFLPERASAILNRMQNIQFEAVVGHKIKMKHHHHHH

IC50 | SMILES
2.16 µM | Cc1ccc2c(c1)OC(C)C2NC(=O)c1ccc(C(F)(F)F)[nH]c1=O (stereo not drawn) [Compound 356, N-(2,6-dimethyl-2,3-dihydrobenzofuran-3-yl)-2-oxo-6-(trifluoromethyl)-1,2-dihydropyridine-3-carboxamide]
1.18 µM | CCC[C@H]1Oc2cc(C)ccc2[C@H]1NC(=O)c1ccc(C(F)(F)F)[nH]c1=O [Compound 357, N-((2R,3R)-6-methyl-2-propyl-2,3-dihydrobenzofuran-3-yl)-2-oxo-6-(trifluoromethyl)-1,2-dihydropyridine-3-carboxamide]
2.47 µM | Cc1ccc2c(c1)C(NC(=O)c1ccc(C(F)(F)F)[nH]c1=O)C(C)O2 (stereo not drawn) [Compound 363, N-(2,5-dimethyl-2,3-dihydrobenzofuran-3-yl)-2-oxo-6-(trifluoromethyl)-1,2-dihydropyridine-3-carboxamide]
0.6 µM | CC[C@@H]1C[C@@H](NC(=O)c2ccc(C(F)(F)F)[nH]c2=O)c2cc(C)ccc2N1 [Compound 364, N-((2R,4R)-2-ethyl-6-methyl-1,2,3,4-tetrahydroquinolin-4-yl)-2-oxo-6-(trifluoromethyl)-1,2-dihydropyridine-3-carboxamide]
0.16 µM | CC[C@H]1C[C@@H](NC(=O)c2ccc(C(F)(F)F)[nH]c2=O)c2cc(C)ccc2N1 [Compound 365, N-((2S,4R)-2-ethyl-6-methyl-1,2,3,4-tetrahydroquinolin-4-yl)-2-oxo-6-(trifluoromethyl)-1,2-dihydropyridine-3-carboxamide]
1.73 µM | CCN1Cc2cc(C)ccc2C(NC(=O)c2ccc(C(F)(F)F)[nH]c2=O)C1=O (stereo not drawn) [Compound 373, N-(2-ethyl-7-methyl-3-oxo-1,2,3,4-tetrahydroisoquinolin-4-yl)-2-oxo-6-(trifluoromethyl)-1,2-dihydropyridine-3-carboxamide]
2.49 µM | Cc1ccc2c(c1)CNC(=O)C2NC(=O)c1ccc(C(F)(F)F)[nH]c1=O (stereo not drawn) [Compound 374, N-(7-methyl-3-oxo-1,2,3,4-tetrahydroisoquinolin-4-yl)-2-oxo-6-(trifluoromethyl)-1,2-dihydropyridine-3-carboxamide]
2.4 µM | Cc1ccc2c(c1)CN(C)C(=O)C2NC(=O)c1ccc(C(F)(F)F)[nH]c1=O (stereo not drawn) [Compound 375, N-(2,7-dimethyl-3-oxo-1,2,3,4-tetrahydroisoquinolin-4-yl)-2-oxo-6-(trifluoromethyl)-1,2-dihydropyridine-3-carboxamide]
2.84 µM | Cc1ccc2c(c1)c(NC(=O)c1ccc(C(F)(F)F)[nH]c1=O)cn2C [Compound 376, N-(1,5-dimethyl-1H-indol-3-yl)-2-oxo-6-(trifluoromethyl)-1,2-dihydropyridine-3-carboxamide]
0.76 µM | Cc1ccc2[nH]c(C)c(NC(=O)c3ccc(C(F)(F)F)[nH]c3=O)c2c1 [Compound 378, N-(2,5-dimethyl-1H-indol-3-yl)-2-oxo-6-(trifluoromethyl)-1,2-dihydropyridine-3-carboxamide]
> 10 µM | Cc1ccc2c(NC(=O)c3ccc(C(F)(F)F)[nH]c3=O)coc2c1 [Compound 380, N-(6-methylbenzofuran-3-yl)-2-oxo-6-(trifluoromethyl)-1,2-dihydropyridine-3-carboxamide]
0.58 µM | COc1ccc2c(c1)CC(C)CC2NC(=O)c1ccc(C(F)(F)F)[nH]c1=O (stereo not drawn) [Compound 389, N-(6-methoxy-3-methyl-1,2,3,4-tetrahydronaphthalen-1-yl)-2-oxo-6-(trifluoromethyl)-1,2-dihydropyridine-3-carboxamide]
0.05 µM | Cc1ccc2c(c1)CC(C)CC2NC(=O)c1ccc(C(F)(F)F)[nH]c1=O (stereo not drawn) [Compound 391, N-(3,6-dimethyl-1,2,3,4-tetrahydronaphthalen-1-yl)-2-oxo-6-(trifluoromethyl)-1,2-dihydropyridine-3-carboxamide]
0.08 µM | CCCC1Cc2cc(OC)ccc2C(NC(=O)c2ccc(C(F)(F)F)[nH]c2=O)C1 (stereo not drawn) [Compound 392, N-(6-methoxy-3-propyl-1,2,3,4-tetrahydronaphthalen-1-yl)-2-oxo-6-(trifluoromethyl)-1,2-dihydropyridine-3-carboxamide]
9.17 µM | Cc1ccc2c(c1)OCC2NC(=O)c1ccc(C(F)(F)F)[nH]c1=O (stereo not drawn) [Compound 395, N-(6-methyl-2,3-dihydrobenzofuran-3-yl)-2-oxo-6-(trifluoromethyl)-1,2-dihydropyridine-3-carboxamide]
6.15 µM | Cc1ccc([C@H](NC(=O)c2ccc(C(F)(F)F)[nH]c2=O)[C@H]2CCCOC2)cc1 [Compound 398, 2-oxo-N—((R)—((R)-tetrahydro-2H-pyran-3-yl)(p-tolyl)methyl)-6-(trifluoromethyl)-1,2-dihydropyridine-3-carboxamide]
0.3 µM | CC1CCC(C(NC(=O)c2ccc(C(F)(F)F)[nH]c2=O)c2ccccc2)CC1 (stereo not drawn) [Compound 399, N-((4-methylcyclohexyl)(phenyl)methyl)-2-oxo-6-(trifluoromethyl)-1,2-dihydropyridine-3-carboxamide]
0.23 µM | Cc1ccc(C(NC(=O)c2ccc(C(F)(F)F)[nH]c2=O)C2CCC(C)CC2)cc1 (stereo not drawn) [Compound 400, N-((4-methylcyclohexyl)(p-tolyl)methyl)-2-oxo-6-(trifluoromethyl)-1,2-dihydropyridine-3-carboxamide]
0.36 µM | CCCC(NC(=O)c1ccc(C(F)(F)F)[nH]c1=O)c1ccc(C)cc1 (stereo not drawn) [Compound 402, 2-oxo-N-(1-(p-tolyl)butyl)-6-(trifluoromethyl)-1,2-dihydropyridine-3-carboxamide]

The next lines start with the compound.

SMILES | IC50
COC1CCc2cc(C)ccc2C1NC(=O)c1ccc(C(F)(F)F)[nH]c1=O (stereo not drawn) [Compound 350, N-(2-methoxy-6-methyl-1,2,3,4-tetrahydronaphthalen-1-yl)-2-oxo-6-(trifluoromethyl)-1,2-dihydropyridine-3-carboxamide] | 0.36 µM
CC[C@@H]1Oc2cc(C)ccc2[C@@H]1NC(=O)c1ccc(C(F)(F)F)[nH]c1=O [Compound 359, N-((2S,3S)-2-ethyl-6-methyl-2,3-dihydrobenzofuran-3-yl)-2-oxo-6-(trifluoromethyl)-1,2-dihydropyridine-3-carboxamide] | 2.15 µM
CC[C@@H]1C[C@@H](NC(=O)c2ccc(C(F)(F)F)[nH]c2=O)c2ccc(C)cc2N1 [Compound 367, N-((2R,4R)-2-ethyl-7-methyl-1,2,3,4-tetrahydroquinolin-4-yl)-2-oxo-6-(trifluoromethyl)-1,2-dihydropyridine-3-carboxamide] | 0.38 µM
Cc1ccc2c(c1)[C@H](NC(=O)c1ccc(C(F)(F)F)[nH]c1=O)C[C@H](C)N2 [Compound 371, N-((2S,4R)-2,6-dimethyl-1,2,3,4-tetrahydroquinolin-4-yl)-2-oxo-6-(trifluoromethyl)-1,2-dihydropyridine-3-carboxamide] | 1.42 µM
Cc1ccc2[nH]cc(NC(=O)c3ccc(C(F)(F)F)[nH]c3=O)c2c1 [Compound 377, N-(5-methyl-1H-indol-3-yl)-2-oxo-6-(trifluoromethyl)-1,2-dihydropyridine-3-carboxamide] | 7.77 µM
Cc1ccc2c(NC(=O)c3ccc(C(F)(F)F)[nH]c3=O)cn(C)c2c1 [Compound 379, N-(1,6-dimethyl-1H-indol-3-yl)-2-oxo-6-(trifluoromethyl)-1,2-dihydropyridine-3-carboxamide] | 4.82 µM
CCCC1CC(NC(=O)c2ccc(C(F)(F)F)[nH]c2=O)c2ccc(C)cc2S1 (stereo not drawn) [Compound 381, N-(7-methyl-2-propylthiochroman-4-yl)-2-oxo-6-(trifluoromethyl)-1,2-dihydropyridine-3-carboxamide] | 0.13 µM
CCCC1CC(NC(=O)c2ccc(C(F)(F)F)[nH]c2=O)c2cc(C)ccc2S1 (stereo not drawn) [Compound 382, N-(6-methyl-2-propylthiochroman-4-yl)-2-oxo-6-(trifluoromethyl)-1,2-dihydropyridine-3-carboxamide] | 0.13 µM
Cc1ccc2c(c1)C(NC(=O)c1ccc(C(F)(F)F)[nH]c1=O)CC(C)S2 (stereo not drawn) [Compound 386, N-(2,6-dimethylthiochroman-4-yl)-2-oxo-6-(trifluoromethyl)-1,2-dihydropyridine-3-carboxamide] | 0.17 µM
Cc1ccc2c(c1)C(NC(=O)c1ccc(C(F)(F)F)[nH]c1=O)CS2 (stereo not drawn) [Compound 393, N-(5-methyl-2,3-dihydrobenzo[b]thiophen-3-yl)-2-oxo-6-(trifluoromethyl)-1,2-dihydropyridine-3-carboxamide] | 1.23 µM
Cc1ccc2c(c1)C(NC(=O)c1ccc(C(F)(F)F)[nH]c1=O)CC(C)O2 (stereo not drawn) [Compound 394, N-(2,6-dimethylchroman-4-yl)-2-oxo-6-(trifluoromethyl)-1,2-dihydropyridine-3-carboxamide] | 0.26 µM
Cc1ccc2c(c1)SCCC2NC(=O)c1ccc(C(F)(F)F)[nH]c1=O (stereo not drawn) [Compound 396, N-(7-methylthiochroman-4-yl)-2-oxo-6-(trifluoromethyl)-1H-pyridine-3-carboxamide] | 0.26 µM
Cc1ccc([C@H](NC(=O)c2ccc(C(F)(F)F)[nH]c2=O)[C@@H]2CCCOC2)cc1 [Compound 397, 2-oxo-N—((R)—((S)-tetrahydro-2H-pyran-3-yl)(p-tolyl)methyl)-6-(trifluoromethyl)-1,2-dihydropyridine-3-carboxamide] | 2.97 µM
CCCC1CC(NC(=O)c2ccc(C(F)(F)F)[nH]c2=O)c2cc(C)ccc2O1 (stereo not drawn) [Compound 403, N-(6-methyl-2-propylchroman-4-yl)-2-oxo-6-(trifluoromethyl)-1,2-dihydropyridine-3-carboxamide] | 0.11 µM
CCC1CC(NC(=O)c2ccc(C(F)(F)F)[nH]c2=O)c2cc(C)ccc2O1 (stereo not drawn) [Compound 404, N-(2-ethyl-6-methylchroman-4-yl)-2-oxo-6-(trifluoromethyl)-1,2-dihydropyridine-3-carboxamide] | 0.22 µM
Cc1ccc2c(c1)C(NC(=O)c1ccc(C(F)(F)F)[nH]c1=O)CO2 (stereo not drawn) [Compound 408, N-(5-methyl-2,3-dihydrobenzofuran-3-yl)-2-oxo-6-(trifluoromethyl)-1,2-dihydropyridine-3-carboxamide] | 2.47 µM
COc1ccc2c(c1)Sc1cc(N)ccc1C2NC(=O)c1ccc(C(F)F)[nH]c1=O (stereo not drawn) [Compound 410, N-(3-amino-6-methoxy-9H-thioxanthen-9-yl)-6-(difluoromethyl)-2-oxo-1,2-dihydropyridine-3-carboxamide] | 0.43 µM
